# Measured values reported in patent US9399631B2, “Polyphenol proteasome inhibitors, synthesis, and methods of use” (UNIVERSITY OF SOUTH FLORIDA, priority 2003, dated 2016).
# Entries after “also recorded” stand apart in the source; their conditions may differ. Read-outs that look alike come from different tables or passages of the source.
# What was measured:
# LNCaP cells [1] = assay: Soft agar colony formation assay; format: cell-based, human; conditions: 10 μM, 14 day-incubation
# Procedure: Soft Agar Assay. The soft agar assay was performed according to Smith et al. (Smith, D. M. et al. Mol Med, 2002, 8:382-392) with a few modifications. In brief, in a six-well plate, a bottom feeder layer (0.6% agar) was prepared with DMEM media containing 10% fetal bovine serum, 100 units/ml penicillin, and 100 μg/ml streptomycin. A top layer (0.3% agar) was prepared with DMEM and the same media as described above but containing 2×10^4 prostate cancer LNCaP cells and indicated analogs or DMSO as a control. Plates were incubated at 37° C. in 5% CO2 in a humidified incubator for two weeks. MTT (1 mg/ml) was added to each well and incubated overnight to allow complete formation of purple formazan crystals. The plates were then scanned and photographed, and the number of colonies was quantified by QUANTITY ONE v.4.0.3 software (Bio-Rad, Hercules, Calif.).
# The […] effects of several GTP analogs were investigated with a soft agar assay that measures the transforming activity of human tumor cells. LNCaP cells were plated in soft agar (see Materials and Methods) along with 50 μM of GTP-1, -2, -3, (−)-EGCG (as a positive control; Smith, D. M. et al. Mol Med, 2002, 8:382-392, 2002), or the solvent (as a negative control), followed by a 14 day-incubation to allow for colony formation (FIGS. 12A and 12B).
# In a second experiment, LNCaP cells were plated in soft agar along with 10 μM of each indicated GTP or solvent (H2O), followed by a 14 day-incubation to allow for colony formation (FIG. 21A). […] Colonies were quantified with an automated counter and presented as mean values from triplicate independent experiments. Error bars denote standard deviations.
# purified 20S proteasome [2] = molecular target: purified 20S proteasome (UniProt Q9P992); assay: Inhibition of chymotrypsin-like activity of purified 20S proteasome (source not stated); format: biochemical; design: other: 1 μM; other: 10 μM; conditions: 10 μM
# purified 20S proteasome (UniProt Q9P992), sequence (Q9P992 whole entry): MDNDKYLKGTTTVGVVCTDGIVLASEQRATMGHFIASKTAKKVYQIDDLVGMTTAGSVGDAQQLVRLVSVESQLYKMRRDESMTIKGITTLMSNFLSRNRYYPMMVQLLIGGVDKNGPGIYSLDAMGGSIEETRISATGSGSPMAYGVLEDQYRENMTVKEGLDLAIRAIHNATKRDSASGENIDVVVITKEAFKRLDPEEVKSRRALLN
# Procedure: (§1) Inhibition of purified 20S proteasome activity by natural or synthetic GTPs. Purified prokaryotic (0.5 μg) or eukaryotic (0.02 μg) 20S proteasome was incubated with 20 μM fluorogenic peptide substrate, Suc-Leu-Leu-Val-Tyr-AMC for 30 min at 37° C. in […] of assay buffer (50 mM Tris-HCl, pH 7.5), with or without a natural or synthetic tea polyphenol. After incubation, production of hydrolyzed 7-amido-4-methyl-coumarin (AMC) groups was measured using a multi-well plate VERSAFLUOR Fluorometer with an excitation filter of 380 nm and an emission filter of 460 nm (BIO-RAD), and a multi-well plate reader Wallac 1420 VICTORTM^2 with an excitation filter of 355 nm and an emission filter of 460 nm (EG&G WALLAC).
# [3] = test system: 26S proteasome in a Jurkat cell lysate; assay: Chymotrypsin-like activity of 26S proteasome in Jurkat cell lysate; format: biochemical, human; conditions: 10 μM
# Procedure: To determine the specificity of the synthetic GTP analogs, their effects were tested on the chymotrypsin-like and trypsin-like activities of the 26S proteasome in a Jurkat cell lysate. […] (+)-GCG at the same concentration inhibited ˜50% of the chymotrypsin-like activity. The potencies of (+)-EGCG and (+)-GCG were similar to those of their natural partners, respectively (FIG. 17A). […] Furthermore, none of the synthetic or control natural compounds could inhibit more than 15% of activity of a purified calpain enzyme (FIG. 17C). […] Values are mean triplicates and error bars denote standard deviations.
# purified 20S proteasome [4] = assay: Inhibition of chymotrypsin-like activity of purified 20S proteasome (source not stated); format: biochemical
# Procedure: as §1
# [5] = molecular target: T1, 20S eukaryotic proteasome (Oryctolagus cuniculus, UniProt G1T4Q9); assay: Inhibition of chymotrypsin-like activity of purified eukaryotic 20S proteasome (Suc-Leu-Leu-Val-Tyr-AMC); format: biochemical, rabbit; conditions: chymotrypsin-like activity, rabbit 20S proteasome
# T1 construct: purchased BOSTON BIOCHEM (Cambridge, Mass.)
# T1 sequence (G1T4Q9 1-263): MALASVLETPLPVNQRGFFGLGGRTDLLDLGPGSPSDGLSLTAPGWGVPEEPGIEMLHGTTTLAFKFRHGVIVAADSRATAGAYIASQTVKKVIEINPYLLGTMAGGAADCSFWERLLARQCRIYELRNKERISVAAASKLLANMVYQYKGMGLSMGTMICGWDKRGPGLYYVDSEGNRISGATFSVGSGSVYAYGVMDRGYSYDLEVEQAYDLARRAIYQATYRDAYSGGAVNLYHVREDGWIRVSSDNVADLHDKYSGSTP
# Procedure: Materials. Highly purified tea polyphenols (−)-EGCG (>95%), (−)-GCG (>98%), (−)-ECG (>98%), (−)-CG (>98%), fetal calf serum, propidium iodide, 3-[4,5-dimethylthiazol-2-yl]-2,5-diphenyltetrazolium bromide (MTT), RNase A, and DMSO were purchased from Sigma (St. Louis, Mo.). (+)-EGCG, benzyl-protected-(+)-EGCG, (+)-GCG, (−)-EGCG-amide, and (+)-EGCG-amide were prepared by enantioselective synthesis (see below). Purified 20S eukaryotic proteasome from rabbit was purchased from BOSTON BIOCHEM (Cambridge, Mass.). Purified 20S prokaryotic proteasome (Methanosarcina thermophile, Recombinant, E. coli) was purchased from CALBIOCHEM (La Jolla, Calif.). Fluorogenic peptide substrates Suc-Leu-Leu-Val-Tyr-AMC (for the proteasomal chymotrypsin-like activity) was obtained from Calbiochem (La Jolla, Calif.). RPMI 1640 medium, Dulbecco's modified Eagle's medium, MEM non-essential amino acids solution, MEM-sodium pyruvate solution, penicillin, and streptomycin were from INVITROGEN (Carlsbad, Calif.). Monoclonal antibody to p27^Kip was purchased from PHARMINGEN (San Diego, Calif.); polyclonal antibodies to IκB-α, Bax and actin, and monoclonal antibody to ubiquitin were from SANTA CRUZ Biotechnology Inc. (Santa Cruz, Calif.).
# as §1
# Purified prokaryotic (0.5 μg) or eukaryotic (0.02 μg) 20S proteasome was incubated with 20 μM fluorogenic peptide substrate, Suc-Leu-Leu-Val-Tyr-AMC for 30 minutes at 37° C. in 100 μl of assay buffer ([…] Tris-HCl, pH 7.5), with or without a natural or synthetic tea polyphenol. After incubation, production of hydrolyzed AMC groups was measured using a multi-well plate VERSAFLUOR Fluorometer with an excitation filter of 380 nm and an emission filter of 460 nm.
# (−)-EGCG at 1 μM was incubated with eukaryotic 20S proteasome (0.02 μg) and suc-LLVY-AMC (20 μM) for the times indicated in FIG. 7. The chymotrypsin activity was measured and graphed in FIG. 7. Values are means from 4 independent experiments, and error bars represent standard deviations.
# In the second experiment (−)-EGCG at 1 μM was pre-incubated with (SDS-pre) or without 0.01% SDS (no SDS) for 1 hour, followed by addition of eukaryotic 20S proteasome (0.02 μg) and suc-LLVY-AMC (20 μM). “SDS-post” represents the same treatment as “no SDS” except 0.01% SDS was added 1 hour after addition of the proteasome, (−)-EGCG and the substrate. AMC liberation was measured by fluorescence at each indicated time point and the percentage of chymotrypsin activity was determined. Values are means from 4 independent experiments, and error bars represent standard deviations.
# MCF-7 cells = assay: Proteasome inhibition / p27 accumulation in MCF-7 cells; format: cell-based, human
# LNCaP cells [6] = assay: Western blot of proteasome target proteins in LNCaP cells; format: cell-based, human; conditions: 25 μM, up to 9 hours
# Procedure: (§2) Cell Culture, Cell Extract Preparation, and Western Blot Assay. Human leukemia Jurkat T and prostate cancer LNCaP cells were cultured in RPMI 1640 medium supplemented with 10% fetal calf serum, 100 units/ml of penicillin, and 100 μg/ml streptomycin. Human immortalized, non-transformed NK cells (YT cell line) (38) were cultured in RPMI 1640 supplemented with 1 mM MEM sodium pyruvate solution, 0.1 mM MEM non-essential amino acids solution, 10% fetal calf serum. 100 units/ml penicillin, and 100 μg/ml streptomycin. Normal (WI-38) and simian virus 40 (SV40)-transformed (VA-13) human fibroblasts were grown in Dulbecco's modified Eagle's medium supplemented with 10% fetal calf serum, 100 units/ml of penicillin and 100 μg/ml of streptomycin. All cells were maintained at 37° C. in a humidified incubator with an atmosphere of 5% CO2. A whole cell extract was prepared in accordance with An et al. (An, B. et al. Cell Death Differ, 1998, 5:1062-75). Briefly, cells were harvested, washed with PBS twice, and homogenized in a lysis buffer [50 mM Tris-HCl (pH 8.0), 5 mM EDTA, 150 mM NaCl, 0.5% NP-40, 0.5 mM phenylmethylsulfonyl fluoride, and 0.5 mM dithiothreitol] for 30 min at 4° C. Afterwards, lysates were centrifuged at 12,000×g for 15 min at 4° C., and the supernatants were collected as whole cell extracts. Equal amounts of protein extract (60 μg) were resolved by SDS-polyacrylamide gel electrophoresis and transferred to a nitrocellulose membrane using a Semi-Dry Transfer system (BIO-RAD, Hercules, Calif.). Jurkat T, LNCaP, or DU-145 cells were treated with various concentrations of synthetic or natural tea polyphenols for indicted hours. The enhanced chemiluminescence (ECL) Western blot analysis was then performed using specific antibodies to the proteins of interest (p^27kip, IκB-α, PARP, Bax or actin). The ratio of p27 or IκB-α to the corresponding actin was determined by scanning intensities of the protein bands.
# To investigate whether (−)-EGCG-amide and (+)-EGCG-amide inhibit intact tumor cell proteasome activity, human prostate cancer LNCaP cells were treated with 25 μM of (−)- or (+)-EGCG-amide for up to 9 hours, followed by measurement of p27, IκB-α and Bax, three well-known proteasome target proteins (Pagano, M. et al. Science, 1995, 269:682-685; An, B. et al. Cell Death Differ, 1998, 5:1062-75; Sun, J. et al. Cancer Res, 2001, 61:1280-1284; Palombella, V. J. et al. Cell, 1994, 78:773-785; Thompson, J. E. et al. Cell, 1995, 80:573-582; Perkins, N. D. Trends Biochem Sci, 2000, 25:434-440; Chang, Y. C. et al. Cell Growth Differ, 1998, 9:79-84; Li, B. and Dou, Q. P. Proc Natl Acad Sci USA, 2000, 97:3850-3855; Nam, S. et al. Cancer Epidemiol Biomarkers Prey, 2001, 10:1083-1088). In this experiment (−)-EGCG and (+)-EGCG were used as positive controls.
# Having determined that the synthetic GTP-1 to −5 analogs are able to inhibit the proteasomal chymotrypsin-like activity in vitro (FIG. 8), these compounds were investigated for their potency in inhibiting intact tumor cellular proteasome activity. To do so, human prostate cancer LNCaP cells were treated with one of these compounds for the indicated hours, followed by measuring levels of proteasome target proteins, p27, IκB-α, and Bax, and polyubiquitinated proteins.
# VA-13 cells = assay: Western blot of p27 in SV40-transformed VA-13 fibroblasts; format: cell-based, human; conditions: 25 μM, 12 hours
# Procedure: as §2
# Normal WI-38 and SV40-transformed VA-13 cell lines were treated with 25 μM of (−)-EGCG, (−)-EGCG-amide, (+)-EGCG, (+)-EGCG-amide, or GTP-1 for either 12 hours or 36 hours.
IC50 [5] [nM],SMILES,inhibition of colony formation (LNCaP cells [1]) [%],inhibition of proteasomal activity (purified 20S proteasome [2]),inhibition of chymotrypsin-like activity of 26S proteasome [3],inhibition of the proteasome (in words) (purified 20S proteasome [4]),inhibition of the proteasome (in words) (purified 20S proteasome [4]; listed as benzyl protected-EGCG),inhibition of proteasome activity / accumulation of p27 (MCF-7 cells),"levels of p27, IκB-α and Bax (LNCaP cells [6])",levels of p27 protein (VA-13 cells)
–,O=C(O[C@H]1Cc2c(OCc3ccccc3)cc(OCc3ccccc3)cc2O[C@H]1c1cc(OCc2ccccc2)c(OCc2ccccc2)c(OCc2ccccc2)c1)c1cc(OCc2ccccc2)c(OCc2ccccc2)c(OCc2ccccc2)c1 [Bn-(+)-EGCG],~10,did not significantly inhibit,could not inhibit the proteasomal chymotrypsin activity at all,can not inhibit the proteasome,cannot inhibit the proteasome; also recorded: fails to inhibit the proteasome,–,–,–
405,"O=C(N[C@H]1Cc2c(O)cc(O)cc2O[C@H]1c1cc(O)c(O)c(O)c1)c1cc(O)c(O)c(O)c1 [(+)-EGCG-amide, (+)-[2S, 3S]-N-[5,7-Dihydroxy-2-(3,4,5-trihydroxyphenyl)-chroman-3-yl]-3,4,5-trihydroxybenzamide]",–,–,–,–,–,able to inhibit the proteasome activity,"able to increase levels of p27, IκB-α and Bax by 3 hours",significantly increased levels of p27 protein
